Experimental data taken from patent US6706663B2, “Herbicidal 3-heterocyclic substituted benzisothiazole and benzisoxazole compounds” (Wyeth, priority 2000, dated 2004).

How the values were obtained:
[1] = tested on: TRZAWR (Wheat, Winter, cv Riband); assay: Postemergence herbicidal evaluation; format: in vivo, Triticum aestivum
How it was run: (§1)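 Seedlings grown about two weeks in flats, sprayed, then kept under standard greenhouse care. Rated visually 4–5 weeks after treatment on a 0–9 scale (stand, vigour, malformation, size, chlorosis, overall appearance) relative to untreated control; repeat tests averaged.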

[2] = tested on: CYPSE (Cyperus serotinus); assay: Flooded paddy, preemergence weed control; format: in vivo, Rottb.; conditions: rated 3-4 weeks after treatment, 0-9 rating scale
How it was run: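 Seeds or propagules were planted 0.5 cm deep in silt loam and flooded to 1.5–3 cm. Compounds in 50/50 v/v aqueous/acetone were pipetted into the flood water at about 0.0080 to 0.1250 kg/ha. After 3–4 weeks in the greenhouse, effect was rated visually on a 0–9 scale versus untreated control.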

[3] = tested on: TRZAWR (Wheat, Winter, cv Riband); assay: Preemergence herbicidal evaluation; format: in vivo, Triticum aestivum; conditions: rated 4-5 weeks after treatment
How it was run: (§2)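 Seeds planted in potting soil cups and sprayed preemergence with aqueous acetone compound solution. Greenhouse-grown; rated 4–5 weeks after treatment on a 0-9 visual scale (stand, vigor, malformation, size, chlorosis, appearance) versus control.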

[4] = tested on: CASOB (Cassia obtusifolia); assay: Postemergence herbicidal evaluation; format: in vivo, L.
How it was run: as §1

[5] = tested on: AMBEL (Ambrosia artemisifolia); assay: Postemergence herbicidal evaluation; format: in vivo, L.
How it was run: as §1

[6] = tested on: CHEAL (Chenopodium album); assay: Postemergence herbicidal evaluation; format: in vivo, L.
How it was run: as §1

GALAP (Galium aparine) = assay: Preemergence herbicidal evaluation; format: in vivo; conditions: rated 4-5 weeks after treatment
How it was run: as §2

[7] = tested on: GLXMAW (Soybean, Williams); assay: Preemergence herbicidal evaluation; format: in vivo, Glycine max, (L.) Merr. cv Williams; conditions: rated 4-5 weeks after treatment
[8] = tested on: ABUTH (Abutilon theophrasti); assay: Preemergence herbicidal evaluation; format: in vivo, Medic.; conditions: rated 4-5 weeks after treatment
ZEAMX (Corn, Field) = assay: Preemergence herbicidal evaluation; format: in vivo, Zea mays, L.; conditions: rated 4-5 weeks after treatment

Compound	Postemergence herbicidal rating, TRZAWR ([1]; rate 0.0320 kg/ha)	Postemergence herbicidal rating, TRZAWR ([1]; rate 0.0620 kg/ha)	herbicidal rating, CYPSE ([2]; rate 0.0320 kg/ha)	TRZAWR preemergence herbicidal rating ([3]; Rate 0.0620 kg/ha)	TRZAWR preemergence herbicidal rating ([3]; Rate 0.1250 kg/ha)	TRZAWR preemergence herbicidal rating ([3]; Rate 0.2500 kg/ha)	Postemergence herbicidal rating, CASOB ([4]; rate 0.0320 kg/ha)	Postemergence herbicidal rating, CASOB ([4]; rate 0.0620 kg/ha)	Postemergence herbicidal rating, AMBEL ([5]; rate 0.0320 kg/ha)	Postemergence herbicidal rating, AMBEL ([5]; rate 0.0620 kg/ha)	Postemergence herbicidal rating, CHEAL ([6]; rate 0.0320 kg/ha)	Postemergence herbicidal rating, CHEAL ([6]; rate 0.0620 kg/ha)	GALAP preemergence herbicidal rating (GALAP (Galium aparine); Rate 0.0620 kg/ha)	GALAP preemergence herbicidal rating (GALAP (Galium aparine); Rate 0.1250 kg/ha)	GALAP preemergence herbicidal rating (GALAP (Galium aparine); Rate 0.2500 kg/ha)	GLXMAW preemergence herbicidal rating ([7]; Rate 0.0620 kg/ha)	GLXMAW preemergence herbicidal rating ([7]; Rate 0.1250 kg/ha)	GLXMAW preemergence herbicidal rating ([7]; Rate 0.2500 kg/ha)	ABUTH preemergence herbicidal rating ([8]; Rate 0.0620 kg/ha)	ABUTH preemergence herbicidal rating ([8]; Rate 0.1250 kg/ha)	further results
1-methyl-3-[3-(1,3-oxathiolan-2-yl)-1,2-benzisothiazol-5-yl]-6-(trifluoromethyl)uracil S′,S′-dioxide [Compound 32]	5.0	5.5	0.0	7.0	8.0	9.0	7.0	9.0	9.0	9.0	9.0	9.0	9.0	9.0	9.0	6.5	9.0	9.0	9.0	9.0	ABUTH preemergence herbicidal rating ([8]; Rate 0.2500 kg/ha): 9.0; ZEAMX preemergence herbicidal rating (ZEAMX (Corn, Field); Rate 0.0620 kg/ha): 6.0; ZEAMX preemergence herbicidal rating (ZEAMX (Corn, Field); Rate 0.1250 kg/ha): 9.0; ZEAMX preemergence herbicidal rating (ZEAMX (Corn, Field); Rate 0.2500 kg/ha): 9.0
Cc1cc(C)nc(-c2nsc3ccc(-n4c(=O)cc(C(F)(F)F)n(C)c4=O)cc23)n1 [Compound 40, 3-[3-(4,6-dimethyl-2-pyrimidinyl)-1,2-benzisothiazol-5-yl]-1-methyl-6-(trifluoromethyl)uracil]	3.5	4.0	0.0				1.0	6.0	9.0	9.0	4.0	6.0									herbicidal rating, CYPSE ([2]; rate 0.1250 kg/ha): 0.0; Preemergence herbicidal rating TRZAWR ([3]; Rate 0.0620 kg/ha): 1.0; Preemergence herbicidal rating TRZAWR ([3]; Rate 0.1250 kg/ha): 5.0; Preemergence herbicidal rating TRZAWR ([3]; Rate 0.2500 kg/ha): 9.0; Preemergence herbicidal rating GALAP (GALAP (Galium aparine); Rate 0.0620 kg/ha): 0.0; Preemergence herbicidal rating GALAP (GALAP (Galium aparine); Rate 0.1250 kg/ha): 0.0; Preemergence herbicidal rating GALAP (GALAP (Galium aparine); Rate 0.2500 kg/ha): 8.0; Preemergence herbicidal rating GLXMAW ([7]; Rate 0.0620 kg/ha): 2.0; Preemergence herbicidal rating GLXMAW ([7]; Rate 0.1250 kg/ha): 2.0; Preemergence herbicidal rating GLXMAW ([7]; Rate 0.2500 kg/ha): 5.0; Preemergence herbicidal rating ABUTH ([8]; Rate 0.0620 kg/ha): 9.0; Preemergence herbicidal rating ABUTH ([8]; Rate 0.1250 kg/ha): 9.0; Preemergence herbicidal rating ABUTH ([8]; Rate 0.2500 kg/ha): 9.0; Preemergence herbicidal rating ZEAMX (ZEAMX (Corn, Field); Rate 0.0620 kg/ha): 4.0; Preemergence herbicidal rating ZEAMX (ZEAMX (Corn, Field); Rate 0.1250 kg/ha): 8.0; Preemergence herbicidal rating ZEAMX (ZEAMX (Corn, Field); Rate 0.2500 kg/ha): 9.0
CN(C(=O)c1nsc2ccc(-n3c(=O)cc(C(F)(F)F)n(C)c3=O)cc12)c1ccc(Cl)cc1 [Compound 18, 1,2-benzisothiazole-3-carboxanilide, 4′-chloro-5-[3,6-dihydro-3-methyl-2,6-dioxo-4-(trifluoromethyl)-1(2H)-pyrimidinyl]-N-methyl-]	3.0	4.0	4.0	0.0	4.0	8.0	0.0	1.0	2.0	9.0	7.0	7.0	0.0	0.0	9.0	0.0	4.0	5.0	9.0	9.0	Postemergence herbicidal rating, TRZAWR ([1]; rate 0.1250 kg/ha): 5.0; Postemergence herbicidal rating, TRZAWR ([1]; rate 0.2500 kg/ha): 6.0; herbicidal rating, CYPSE ([2]; rate 0.1250 kg/ha): 4.0; Postemergence herbicidal rating, CASOB ([4]; rate 0.1250 kg/ha): 2.0; Postemergence herbicidal rating, CASOB ([4]; rate 0.2500 kg/ha): 6.0; Postemergence herbicidal rating, AMBEL ([5]; rate 0.1250 kg/ha): 9.0; Postemergence herbicidal rating, AMBEL ([5]; rate 0.2500 kg/ha): 9.0; Postemergence herbicidal rating, CHEAL ([6]; rate 0.1250 kg/ha): 7.0; Postemergence herbicidal rating, CHEAL ([6]; rate 0.2500 kg/ha): 9.0; ABUTH preemergence herbicidal rating ([8]; Rate 0.2500 kg/ha): 9.0; ZEAMX preemergence herbicidal rating (ZEAMX (Corn, Field); Rate 0.0620 kg/ha): 7.0; ZEAMX preemergence herbicidal rating (ZEAMX (Corn, Field); Rate 0.1250 kg/ha): 8.0; ZEAMX preemergence herbicidal rating (ZEAMX (Corn, Field); Rate 0.2500 kg/ha): 8.0
Cn1c(C(F)(F)F)cc(=O)n(-c2ccc3snc(C4OCCS4)c3c2)c1=O (stereo not shown) [Compound 31, 1-methyl-3-[3-(1,3-oxathiolan-2-yl)-1,2-benzisothiazol-5-yl]-6-(trifluoromethyl)uracil]	5.0	5.5	4.0	7.0	8.0	9.0	5.0	8.0	9.0	9.0	9.0	9.0	5.0	9.0	9.0	8.5	7.3	9.0	8.3	9.0	herbicidal rating, CYPSE ([2]; rate 0.1250 kg/ha): 5.0; ABUTH preemergence herbicidal rating ([8]; Rate 0.2500 kg/ha): 9.0; ZEAMX preemergence herbicidal rating (ZEAMX (Corn, Field); Rate 0.0620 kg/ha): 4.7; ZEAMX preemergence herbicidal rating (ZEAMX (Corn, Field); Rate 0.1250 kg/ha): 6.3; ZEAMX preemergence herbicidal rating (ZEAMX (Corn, Field); Rate 0.2500 kg/ha): 8.5
Cn1c(C(F)(F)F)cc(=O)n(-c2ccc3snc(C4OCC(C)(C)CO4)c3c2)c1=O [Compound 36, 3-[3(5,5-dimethyl-m-dioxan-2-yl)-1,2-benzisothiazol-5-yl]-1-methyl-6-(trifluoromethyl)uracil]	4.0	4.5	9.0	9.0	9.0	9.0	9.0	9.0	9.0	9.0	7.0	9.0	5.0	9.0	9.0	8.0	9.0	9.0	9.0	9.0	herbicidal rating, CYPSE ([2]; rate 0.1250 kg/ha): 9.0; ABUTH preemergence herbicidal rating ([8]; Rate 0.2500 kg/ha): 9.0; ZEAMX preemergence herbicidal rating (ZEAMX (Corn, Field); Rate 0.0620 kg/ha): 8.0; ZEAMX preemergence herbicidal rating (ZEAMX (Corn, Field); Rate 0.1250 kg/ha): 8.0; ZEAMX preemergence herbicidal rating (ZEAMX (Corn, Field); Rate 0.2500 kg/ha): 9.0
Cn1c(C(F)(F)F)cc(=O)n(-c2ccc3snc(C(SCCO)SCCO)c3c2)c1=O [Compound 33, 1,2-benzisothiazole-3-carboxaldehyde, 5-[3,6-dihydro-3-methyl-2,6-dioxo-4-(trifluoromethyl)-1(2H)-pyrimidinyl]-, 3-[bis(2-hydroxyethyl)dithioacetal]]	4.0	5.0	0.0	0.0	1.0	4.0	0.0	1.0	4.0	9.0	3.0	7.0	3.0	2.0	7.0	0.0	1.0	3.0	2.0	9.0	herbicidal rating, CYPSE ([2]; rate 0.1250 kg/ha): 0.0; ABUTH preemergence herbicidal rating ([8]; Rate 0.2500 kg/ha): 9.0; ZEAMX preemergence herbicidal rating (ZEAMX (Corn, Field); Rate 0.0620 kg/ha): 0.0; ZEAMX preemergence herbicidal rating (ZEAMX (Corn, Field); Rate 0.1250 kg/ha): 2.0; ZEAMX preemergence herbicidal rating (ZEAMX (Corn, Field); Rate 0.2500 kg/ha): 2.0
